Tests used:
5-HT2C receptor = biological target: T1, 5-HT2C receptor (Homo sapiens, UniProt P28335); assay: radioligand ([3H]mesulergine) competitive binding assay for 5-HT2C receptor; details: choroid plexus or recombinant 5-HT2C receptor expressed in CHO-K1 cells; for IC50: read-out: binding affinity to 5-HT2C serotonin receptor expressed as IC50 value; for Ki: read-out: binding affinity to 5-HT2C serotonin receptor, Ki value
T1 construct: expressed in transfected cells; host or cells: CHO-K1 (or COS-7)
T1 sequence (P28335 33-458): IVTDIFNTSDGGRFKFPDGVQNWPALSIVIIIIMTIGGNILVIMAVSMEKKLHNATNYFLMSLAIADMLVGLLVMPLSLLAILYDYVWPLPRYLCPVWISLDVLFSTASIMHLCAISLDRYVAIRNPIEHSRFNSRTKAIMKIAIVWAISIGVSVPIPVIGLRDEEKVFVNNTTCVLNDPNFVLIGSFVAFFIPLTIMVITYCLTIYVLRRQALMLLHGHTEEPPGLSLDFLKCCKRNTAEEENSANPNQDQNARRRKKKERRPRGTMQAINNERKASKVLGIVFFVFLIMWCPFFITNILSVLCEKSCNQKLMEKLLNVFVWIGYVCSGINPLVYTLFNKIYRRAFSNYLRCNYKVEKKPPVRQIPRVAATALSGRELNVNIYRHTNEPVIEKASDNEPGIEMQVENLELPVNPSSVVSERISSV
Method: (§1) The effect of the compounds of the present invention on the neurochemical steady state was determined by in vitro investigations such as a radionuclide-marked radioligand binding assay for 5-HT2A (Bonhaus D. W. Br. J. Pharmacol. 1995, 115:622; Saucier C. J. Neurochem. 1997, 68:1998) and 5-HT2C receptors (Wolf W. A. J. Neurochem. 1997, 69:1449), in vitro binding assay for σ1 receptor (Thomson W. and Donn R. Arthritis Res. 2002, 4: 302-306) and by in vivo investigations in a tail suspension test (Vogel H. G. and Vogel W. H. Drug Discovery and Evaluation Pharmacological Assays, Springer 1997, 304), in amphethamine-induced hyperlocomotion in mice (Millan M. J. et al, 1998 J. Pharmacol. Exp. Ther. 287: 167-186), in a forced swim test in mice (Porsolt R. D. et al. Arch. Int. Pharmacodyn. 1977, 229:327-336), in meta-chlorophenyl piperazine (m-CPP) test on rats (Drug Dev. Res. 1989, 18:119-144), and in apomorphine, tryptamine, norepinephrine (ATN) test in rats (Arch. Int. Pharmacodyn. 1977, 227:238-253).
(§2) In Vitro Method for Determining Affinity for Binding to 5-HT2A and 5-HT2C Receptors
(§3) A small concentration of a radioligand having a great affinity for binding to a receptor was incubated with a tissue sample enriched with a certain receptor (1-5 mg of tissue) in a buffered medium (0.2-5 mL). Recombinant human HT2A and HT2C receptors were expressed in CHO-K1 or COS-7 cells and were also used for competitive binding. During incubation the radioligand bound to the receptor. When a binding balance was achieved, the receptors to which the radioligand was bound were separated from those to which said ligand was not bound, and the radioactivity of the receptor/radioligand complex was measured. The interaction of the tested compounds with receptors was tested in competitive binding experiments. Various concentrations of tested compounds were added to the incubation mixture containing a prepared tissue enriched with corresponding receptors and the radioligand. The radioligand binding was inhibited by the test compounds proportionally to the affinity of a certain compound for the receptor and to the concentration of the compound.
The radioligand used for the determination of binding to 5-HT2C receptor was [^3H]mesulergine and the tissue used was choroid plexus or recombinant 5-HT2C receptor expressed in CHO-K1 cells.

5-HT2A receptor = biological target: T2, 5-HT2A receptor (Homo sapiens, UniProt P28223); assay: radioligand ([3H]-ketanserin) competitive binding assay for 5-HT2A receptor; details: for IC50: human cortex or recombinant 5-HT2A receptor expressed in CHO-K1, read-out: binding affinity to 5-HT2A serotonin receptor expressed as IC50 value; for Ki: human cortex or recombinant 5-HT2A receptor expressed in CHO-K1, read-out: binding affinity to 5-HT2A serotonin receptor, Ki value
T2 construct: expressed in transfected cells; host or cells: CHO-K1 (or COS-7)
Method: as §1, §2, §3
The radioligand used for the determination of binding to 5-HT2A receptor was [^3H]-ketanserin and the tissue used was human cortex or recombinant 5-HT2A receptor expressed in CHO-K1.

T2 sequence (P28223 whole entry): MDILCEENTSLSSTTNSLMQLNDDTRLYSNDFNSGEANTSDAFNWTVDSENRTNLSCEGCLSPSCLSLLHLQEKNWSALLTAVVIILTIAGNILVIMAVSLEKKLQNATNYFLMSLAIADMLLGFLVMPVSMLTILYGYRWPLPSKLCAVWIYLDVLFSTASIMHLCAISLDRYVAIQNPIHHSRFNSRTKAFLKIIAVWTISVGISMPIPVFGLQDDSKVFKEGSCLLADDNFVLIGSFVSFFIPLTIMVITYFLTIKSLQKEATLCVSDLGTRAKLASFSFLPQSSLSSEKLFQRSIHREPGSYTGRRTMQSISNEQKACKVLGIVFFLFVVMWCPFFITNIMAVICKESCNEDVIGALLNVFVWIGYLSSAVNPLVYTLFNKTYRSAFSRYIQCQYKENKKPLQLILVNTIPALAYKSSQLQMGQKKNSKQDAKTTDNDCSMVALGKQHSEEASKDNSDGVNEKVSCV

IC50 (5-HT2C receptor) [µM] | Ki (5-HT2C receptor) [µM] | IC50 (5-HT2A receptor) [µM] | Ki (5-HT2A receptor) [µM] | Compound
< 0.2 | < 0.1 | < 0.2 | < 0.1 | Cc1onc2c1-c1ccccc1Sc1ccccc1-2 [Compound 1, 3-Methyl-2-oxa-8-thia-1-aza-dibenzo[e,h]azulene]
< 0.2 | < 0.1 | < 0.2 | < 0.1 | CN(C)CCCOCc1onc2c1-c1ccccc1Sc1ccccc1-2 [Compound 7, Dimethyl-[3-(2-oxa-8-thia-1-aza-dibenzo[e,h]azulen-3-ylmethoxy)-propyl]-amine]
